The assay relates to human Peripheral Blood Mononuclear Cell (PMBC). The assay can be described thus: PBMC assay: cytokine (IFN-α) stimulation at 24 hours. The format is cell-based. To be noted: lowest concentration stimulating IFN-α production at least 3-fold over background, Luminex, read-out: IFN MEC. As for the experimental part:
Assays were conducted to determine cytokine stimulation at 24 hours from human Peripheral Blood Mononuclear Cell (PMBC) using the compounds of the present invention. The assays were run in duplicate, with 8-point, half-log dilution curves. The compounds of the present invention were diluted from 10 mM DMSO solution. Cell supernatants are assayed directly for IFNα and 1:10 dilution for TNFα. The assays were performed in a similar fashion as described in Bioorg. […] Specifically, cryo-preserved PBMCs were thawed and seeded 96 well plates with 750,000 cells/well in 190 μL/well cell media. The PBMCs were then incubated for 1 hour at 37° C. at 5% CO2. Then, the compounds of the present invention were added in 10 μL cell media at 8 point, half-log dilution titration. The plates were incubated at 37° C. and 5% CO2 for 24 hours and then spinned at 1200 rpm for 10 min, which was followed by collecting supernatant and storing the same at −80° C. Cytokine secretion was assayed with Luminex and Upstate multi-plex kits, using a Luminex analysis instrument. The IFN-α MEC value for a compound was the lowest concentration at which the compound stimulated IFN-α production at least 3-fold over the background as determined using the assay method above.
For `CCCCOc1nc(N)c2[nH]c(=O)c(=O)n(Cc3ccccc3CN3CCCC3)c2n1` [Example 89], the minimal effective concentration was at most 0.03 µM. The same measure for `Nc1nc(OCC2CCCC2)nc2c1NC(=O)CN2Cc1cccc(CN2CCCC2)c1` [Example 8, 4-amino-2-{(cyclopentyl)methoxy}-8-[3′-(pyrrolidin-1″-ylmethyl)-benzyl]-5,6,7,8-tetrahydropteridin-6-one]: over 0.03 µM. The same measure for `CCCCOc1nc(N)c2c(n1)N(Cc1ccc3c(c1)CN(CC1CC1)CC3)CC(=O)N2` [Example 70]: at most 0.03 µM.

With `COCCOc1nc(N)c2[nH]c(=O)c(=O)n(Cc3ccc(-c4cccc(CN5CCCC5)c4)cc3)c2n1` [Example 95], the minimal effective concentration was at most 0.03 µM.

On to `CCCCNc1nc(N)c2[nH]c(=O)c(=O)n(Cc3cccc(CN4CCCC4)c3)c2n1` [Example 90], for which the minimal effective concentration is over 0.03 µM. The same measure for `CCCCCc1nc(N)c2c(n1)N(Cc1cccc(CN3CCCC3)c1)CC(=O)N2` [Example 53]: over 0.03 µM; for `CCCCOc1nc(N)c2c(n1)N(Cc1cccc(CN3CCCC3)c1)CC(=O)N2` [Example 49, 4-amino-2-n-butoxy-8-[3′-(pyrrolidin-1″-ylmethyl)-benzyl]-5,6,7,8-tetrahydropteridin-6-one]: at most 0.03 µM; for `CCCCOc1nc(N)c2c(n1)N(Cc1cccc(CN3CCC(C(=O)O)CC3)c1)CC(=O)N2` [Example 75]: over 0.03 µM. The same measure for `CC1(COc2nc(N)c3c(n2)N(Cc2cccc(CN4CCCC4)c2)CC(=O)N3)CC1` [Example 6, 4-amino-2-{(1′″-methylcycloprop-1′″-yl)methoxy}-8-[3′-(pyrrolidin-1″-ylmethyl)-benzyl]-5,6,7,8-tetrahydropteridin-6-one]: over 0.03 µM. In the case of `CCCCNc1nc(N)c2c(n1)N(Cc1cccc(CN3CCCC3)c1)CC(=O)N2` [Example 32], the minimal effective concentration was over 0.03 µM. In the case of `CCCCOc1nc(N)c2[nH]c(=O)c(=O)n(Cc3cccc(CN4CCCC4)c3)c2n1` [Example 83], the minimal effective concentration was at most 0.03 µM. Turning to `Nc1nc(N2CCCC2)nc2c1NC(=O)CN2Cc1cccc(CN2CCCC2)c1` [Example 43], the minimal effective concentration was at most 0.03 µM.

As for `CCCCOc1nc(N)c2c(n1)N(Cc1ccc3c(c1)CCNC3)CC(=O)N2` [Example 103], the minimal effective concentration was at most 0.03 µM.

For `CC(C)(O)CCOc1nc(N)c2c(n1)N(Cc1cccc(CN3CCCC3)c1)CC(=O)N2` [Example 28], the minimal effective concentration is over 0.03 µM. For `CCCCOc1nc(N)c2c(n1)N(Cc1ccc(CN3CCCC3)cc1)CC(=O)N2` [Example 4, 4-amino-2-n-butoxy-8-[4′-(pyrrolidin-1″-ylmethyl)-benzyl]-5,6,7,8-tetrahydropteridin-6-one] the value was at most 0.03 µM.

Consider `CCC[C@H](C)Oc1nc(N)c2c(n1)N(Cc1cccc(CN3CCCC3)c1)CC(=O)N2` [Example 59], for which the minimal effective concentration is at most 0.03 µM. Consider `CCC(CC)COc1nc(N)c2c(n1)N(Cc1cccc(CN3CCCC3)c1)CC(=O)N2` [Example 31], for which the minimal effective concentration was at most 0.03 µM.

As for `CC(C)COc1nc(N)c2c(n1)N(Cc1cccc(CN3CCCC3)c1)CC(=O)N2` [Example 10], the minimal effective concentration was over 0.03 µM. Turning to `Nc1nc(OCC2CCC2)nc2c1NC(=O)CN2Cc1cccc(CN2CCCC2)c1` [Example 7, 4-amino-2-{(cyclobutyl)methoxy}-8-[3′-(pyrrolidin-1″-ylmethyl)-benzyl]-5,6,7,8-tetrahydropteridin-6-one], the minimal effective concentration was over 0.03 µM. In the case of `Nc1nc(OC2CCCC2)nc2c1NC(=O)CN2Cc1cccc(CN2CCCC2)c1` [Example 21], the minimal effective concentration is at most 0.03 µM.

In the case of `CCCCOc1nc(N)c2c(n1)N(Cc1cccc(CN3C(C)CCC3C)c1)CC(=O)N2` (stereo not drawn) [Example 102], the minimal effective concentration is at most 0.03 µM. Consider `Nc1nc(OC2CCCC2)nc2c1NC(=O)CN2Cc1ccnc(N2CCOCC2)c1` [Example 69], for which the minimal effective concentration is over 0.03 µM. For `CCC[C@H](C)Oc1nc(N)c2c(n1)N(Cc1ccc(C)nc1)CC(=O)N2` [Example 116] the value was over 0.03 µM. On to `Nc1nc(OCC2CCOCC2)nc2c1NC(=O)CN2Cc1ccc(C(F)(F)F)nc1` [Example 118], for which the minimal effective concentration was over 0.03 µM.

(Values after patent US11110091B2, “Modulators of toll-like receptors” (Gilead Sciences, Inc., priority 2008, dated 2021).)
